This is an account of results in US5688670A, “Self-modifying RNA molecules and methods of making” (The General Hospital Corporation, priority 1994, dated 1997).

Values joined by “and” are separate entries in the source; they are usually repeats but may differ in a detail not shown here. Identical values can stand only once.

Test [1] concerns polynucleotide kinase ribozyme Class II (Kin.25). Nature of the test: kinetic analysis of auto-thiophosphorylation by kinase ribozyme. It counts as biochemical. How it is done:
(§1) Because the random pool initially prepared sampled sequence space very sparsely (there are between 4^100 and 10^60 possible 100-mers, but only approximately 10^16 different molecules in the pool), active molecules are likely to be sub-optimal catalysts. Accordingly, three cycles of mutagenic PCR (before selection cycles 7, 8, and 9) were performed to allow the evolution of improvements in the active molecules. Mutagenic PCR was performed as described by Bartel and Szostak (Science, 61:1411, 1993) and by Cadwell and Joyce (PCR Methods Appl., 28, 1992). Briefly, thirty total cycles of PCR were done at each round to yield - 2% mutagenesis. Reactions of pool RNAs were performed either with trace ATP-γ-^35 S, or with 100 μM ATP-γ-S plus additional trace ATP-γ-^35 S. Dithiothreitol (DTT, 10 mM) was included in the reactions. Reactions were quenched by the addition of one volume of 150 mM EDTA, 20 mM DTT in 95% formamide. Reactions were analyzed by electrophoresis on 10% polyacrylamide/8M urea gels. Quantitation was performed using a PhosphorImager (Molecular Dynamics). A known amount of ATP-γ-^35 S was spotted on the gels as a standard. The combined effect of increasing the stringency and performing mutagenic PCR was to increase the activity of the pool by nearly three orders of magnitude from cycle 6 to cycle 13 (FIG. 4).
(§2) Rates for each clone were determined (as described herein) at 6 different ATP-γ-S concentrations, ranging from 2 μM-[…].

Test [2] has as its system polynucleotide kinase ribozyme Class IV (Kin.44). The test is described as above. Particulars: 6 ATP-γ-S concentrations. It counts as biochemical. The protocol:
as §1, §2

Test [3] deals with polynucleotide kinase ribozyme Class III (Kin.42). The description is as above. It counts as biochemical. Particulars: 6 ATP-γ-S concentrations. How it is done:
as §1, §2

The target of test [4] is ATP-binding RNA clone 2 (C8-ATP series, eighth cycle RNA population). Nature of the test: binding of individual eighth-cycle clones to ATP-agarose. Particulars: read-out: dissociation constant (Kd). The protocol:
(§3) A chemically synthesized pool of DNA molecules containing a central region of 120 random nucleotides 5 flanked by constant regions used as primer binding sites was PCR-amplified and transcribed in vitro by T7 RNA polymerase in the presence of [α-^32 P][…]. RNA was ethanol-precipitated and unincorporated nucleotides removed by Sephadex-G50 chromatography. Following a brief incubation at 65° C. in binding buffer (300 mM NaCl, 20 Mm Tris, pH 7.6, 5 mM MgCl2), the RNA was cooled to room temperature before being loaded onto a 1-ml ATP agarose affinity column. […] After washing with 6 column-volumes of binding buffer, bound RNAs were eluted with 3 column-volumes of binding buffer containing 4 mM ATP, then concentrated by precipitation with ethanol. For the first three cycles, an agarose pre-column was used to prevent enrichment of the RNA pool with agarose-binding RNAs, and bound RNAs were eluted with 5 mM EDTA in water rather than affinity-eluted with ATP. After reverse transcription and PCR amplification, DNA templates were transcribed and the resulting RNA was used in the next round of selection. RNA from the eighth round of selection was converted to cDNA, amplified as double-stranded DNA by PCR, digested with EcoR1 and BamHl gel-purified and cloned into the phage M13 based vector pGem3Z (Promega, Madison, Wis.).
(§4) Thirty-nine clones from the eighth cycle RNA population were sequenced seventeen different sequences were found. Of these, the most abundant sequence (C8-ATP-3) occurred 14 times, and 12 sequences occurred just once. […] Clones 2, 3, 8, 15, and 19 were individually tested for binding to ATP-agarose.

Test [5] has as its system ATP-binding RNA clone 15 (C8-ATP-15). Described as above. How it is done: as §3, §4
In test [6] the target is ATP-binding RNA clone 8 (C8-ATP series, eighth cycle RNA population). The description is as above. Particulars: read-out: dissociation constant (Kd). How it is done:
as §3, §4

Test [7] deals with ATP-binding RNA clone 19 (C8-ATP series, eighth cycle RNA population). Described as above. Particulars: read-out: dissociation constant (Kd). The protocol: as §3, §4
For test [8], the target named is ATP-binding RNA clone 3 (C8-ATP-3, full-length 164-nucleotide RNA). The description is as above. Particulars: read-out: dissociation constant (Kd). The protocol: as §3, §4
Test [9] has as its target ATP-40-1 RNA (40-nucleotide ATP aptamer). Briefly: equilibrium gel filtration (solution Kd). It counts as binding. The protocol:
(§5) Isocratic elution (Arnold et al., J. Chromatography 31:1, 1986) from ATP-agarose and equilibrium gel filtration (Fersht, in Enzyme Structure and Mechanism p. 186-188, Freeman, New York, 1985) was used to measure the dissociation constant for the RNA-ATP complex on the column and in solution. […] The Kd for the ATP-agarose complex is an upper estimate, because the fraction of bound ATP that is accessible to the RNA is not known. The solution Kd for adenosine was similar to that of ATP (5-8 μM), but the Kd for dATP was not measurable (>1 mM). The Kd of ATP-40-1 for its ligand dropped to 2 μM when the Mg^+2 concentration was raised from 5 to 20 mM. Changing the base pair U18-A33 to C-G, as found in most of the clones initially selected, further decreased the Kd to 0.7 μM. At almost saturating concentrations of ATP (50 μM), the RNA bound ~0.7 equivalents of ATP. The RNA likely binds its ligands with a stoichiometry of unit.
On the technique in general: Size exclusion chromatography separates by hydrodynamic size, large species first.

Test [10] has the same target. Briefly: isocratic elution from ATP-C8-agarose column. Type of test: binding. Particulars: upper estimate, 5 mM Mg. The protocol:
as §5

For test [11], the target named is Class III aptamer RNA (ATP aptamer region of Class III kinase ribozyme). Briefly: binding of kinase-class aptamer region RNA to C-8 linked ATP agarose. Particulars: no detectable interaction with ATP agarose. The text has this:
(§6) Either the right or left hand stems of the Class II, VI and VII aptamer regions appear to be missing, and it seems likely that these molecules have found novel modes of binding their substrates. Using run-off transcription of synthetic DNA oligonucleotides (Milligan and Uhlenbeck, Methods Enzymol. 180:51, 1989) the RNAs corresponding to the Class I, III, IV, and V aptamer regions were produced. The Class IV aptamer RNA binds weakly to C-8 linked ATP agarose (Sassanfar and Szostak, supra), consistent with a molecule having a Kd for ATP in the range of 0.05-0.5 mM. […] Presumably, the corresponding classes of kinases have developed novel modes of binding ATP-γ-S.

Test [12] concerns the target Class I aptamer RNA (ATP aptamer region of Class I kinase ribozyme). The test is described as above. Particulars: no detectable interaction with ATP agarose.
Description: as §6

In test [13] the target is ATP-40-1 RNA variant, base pair U18-A33 changed to C-G. Nature of the test: Kd of ATP aptamer variant. Particulars: further decrease after raising Mg+2 to 20 mM. Type of test: binding. How it is done: as §5
Test [14] has as its system BL2.8-7 self-biotinylating ribozyme (re-selected from BL8-6). Briefly: self-biotinylation time course. Type of test: biochemical. The protocol: The rate of self-biotinylation was determined by a time course experiment. ^32 P-labelled RNA was first resuspended in incubation buffer (100 mM KCl, 10 mM Na-Hepes, pH 7.4, 5 mM MgCl2) and allowed to equilibrate for 10 minutes at room temperature. […] Samples were quenched and affinity purified as described in Haugland, Molecular Probes Handbook of Fluoprescent Probes and Research Chemicals. Aliquots were counted in a scintillation counter following ethanol precipitation (total RNA count) and following binding to streptavidin agarose (product RNA count); the ratio of these two counts is the fraction reacted. Optimizing enzymatic activity: It seemed likely that the original RNA pool from which the BL8-6 ribozyme was derived might not saturate the space of biotin-ligating ribozymes. […]
The background rate of guanosine alkylation by BIE was determined by two independent methods. […] To characterize the functional cores of the two molecules, we analyzed the sequences of active clones isolated from the two mutagenized RNA pools generated from the biotin aptamer and self-alkylating ribozyme sequences. […] Approximately thirty individual RNAs from each of these subcloned pools were sequenced and analyzed to determine which nucleotide positions were conserved and which pairs of nucleotides covaried to maintain Watson-Crick base pairing. […]

The test system of test [15] is BL8-6 self-biotinylating ribozyme (SEQ ID NO: 91). Nature of the test: self-biotinylation time course. It counts as biochemical. Particulars: in the presence of 200 μM BIE. How it is done: The rate of self-biotinylation was determined by a time course experiment. ^32 P-labelled RNA was first resuspended in incubation buffer (100 mM KCl, 10 mM Na-Hepes, pH 7.4, 5 mM MgCl2) and allowed to equilibrate for 10 minutes at room temperature. 200 μM BIE was added to the mixture and aliquots were subsequently removed after 0 to 120 minutes of incubation. Samples were quenched and affinity purified as described in Haugland, Molecular Probes Handbook of Fluoprescent Probes and Research Chemicals. Aliquots were counted in a scintillation counter following ethanol precipitation (total RNA count) and following binding to streptavidin agarose (product RNA count); the ratio of these two counts is the fraction reacted. Optimizing enzymatic activity: It seemed likely that the original RNA pool from which the BL8-6 ribozyme was derived might not saturate the space of biotin-ligating ribozymes. To test the possibility that appropriate additional mutations to the BL8-6 sequence might increase its catalytic activity, a third RNA pool was generated based on its sequence but with non-wild-type nucleotides substituted at each position with 30% probability (FIG. 8D) (using methods described above). […] After eight rounds of selection (ending with a 1 minute incubation period at 10 μM BIE), active clones from the pool were sequenced and assayed for catalytic activity.

[16] abbreviates: auto-thiophosphorylation, 6 ATP-γ-S concentrations.
Setting [17] is: equilibrium gel filtration, 5 mM Mg, read-out: Kd (solution).

The Km is the concentration of substrate that gives half-maximal velocity. What is called kcat is the number of substrate molecules converted per active site and unit of time at saturation. What is called kcat/Km is the second-order rate constant that governs catalysis at low substrate concentration. For `Nc1ncnc2c1ncn2[C@@H]1O[C@H](COP(=O)(O)OP(=O)(O)OP(O)(O)=S)[C@@H](O)[C@H]1O` [ATP-γ-S], the Km was 41 µM and 42 µM in test [1] (setting [16]); 50 µM and 58 µM in test [3]. For the same molecule, the kcat was 0.20 ± 0.02 min⁻¹ and 0.33 ± 0.02 min⁻¹ in test [1] (setting [16]); “approximately 0.3 min^-1” in [1] (self-phosphorylation, approximate value); 0.03 ± 0.001 min⁻¹ in test [2]; 0.07 ± 0.005 min⁻¹ and 0.10 ± 0.016 min⁻¹ in [3]. In addition, the kcat/Km in test [1] (self-phosphorylation) was found to be 6000 min⁻¹ M⁻¹.

Broadly, the Kd is the free concentration of one partner at which half of the binding sites on the other are occupied at equilibrium, for simple one-to-one binding. As to `Nc1ncnc2c1ncn2[C@@H]1O[C@H](COP(=O)(O)OP(=O)(O)OP(=O)(O)O)[C@@H](O)[C@H]1O` [ATP], the Kd in test [4] was less than 50 µM; in test [6], less than 50 µM; in test [7], less than 50 µM; in [8] it was less than 50 µM; in test [9] (Mg+2 concentration raised from 5 to 20 mM, method not stated, read-out: Kd), 2 µM; in [9] (setting [17]), 6 to 8 µM. The dissociation constant Kd in test [10] was roughly 14 µM; in test [11], greater than 500 µM; in test [12], greater than 500 µM; in test [13], 700 nM. In [5], the “estimated Kd” value is ~ 250 μM.

With `O=C(CI)NCCNC(=O)CCCC[C@@H]1SC[C@@H]2NC(=O)N[C@@H]21` [BIE, N-biotinoyl-N'-iodoacetylethylenediamine], the rate of self-biotinylation in test [14] (in the presence of 100 μM BIE) came to 0.05 min⁻¹; in test [15], 0.001 min⁻¹. The catalyzed biotinylation rate entry in test [14] (time course experiment) is given as “approximately 8 s^-1 M^-1”.

Take `Nc1ncnc2c1ncn2[C@@H]1O[C@H](CO)[C@@H](O)[C@H]1O` [adenosine]: the Kd in [9] (setting [17]) lay in the range of 5 to 8 µM.

For the molecule `Nc1ncnc2c1ncn2[C@H]1C[C@H](O)[C@@H](COP(=O)(O)OP(=O)(O)OP(=O)(O)O)O1` [dATP], in [9] (not measurable, read-out: Kd (solution)), the Kd is greater than 1000 µM.
